Read-outs that look alike come from different tables or passages of the source.

For experiment [1], the target named is T1, NMDA receptors.
T1 construct: PC NMDA (antagonism of NMDA-induced inward currents); other: at −70 mV, cultured rat hippocampal neurones; PC (PC NMDA, antagonism of NMDA-induced inward currents)
Particulars: at −70 mV, cultured rat hippocampal neurones, cited from earlier work.

For a further experiment, the target named is T2, 5-HT3 receptors (Mus musculus, UniProt P23979).
T2 construct: against “steady-state” responses of N1E-115 cells to serotonin (10 μM); host or cells: N1E-115 cells
T2 sequence (P23979 24-489): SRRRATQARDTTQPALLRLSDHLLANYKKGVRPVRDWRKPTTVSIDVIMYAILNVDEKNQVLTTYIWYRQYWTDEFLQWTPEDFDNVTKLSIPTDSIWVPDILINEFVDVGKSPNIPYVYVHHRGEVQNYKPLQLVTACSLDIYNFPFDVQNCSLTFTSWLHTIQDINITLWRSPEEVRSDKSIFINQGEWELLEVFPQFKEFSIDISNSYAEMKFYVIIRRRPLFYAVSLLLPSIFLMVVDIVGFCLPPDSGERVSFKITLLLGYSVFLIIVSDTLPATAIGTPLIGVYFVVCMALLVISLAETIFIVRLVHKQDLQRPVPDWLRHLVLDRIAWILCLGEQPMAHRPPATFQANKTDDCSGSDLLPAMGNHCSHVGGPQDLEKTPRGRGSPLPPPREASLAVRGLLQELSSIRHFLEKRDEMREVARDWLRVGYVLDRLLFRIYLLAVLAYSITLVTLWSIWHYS
Put plainly: patch clamp, antagonism of serotonin-induced inward currents in N1E-115 cells. Format: cell-based. As to conditions: serotonin (10 μM) applied for 2 secs, read-out: 5HT3 IC50 against steady-state responses. On the procedure:
N1E-115 cells were purchased from the European collection of cell cultures (ECACC, Salisbury, UK) and stored at −80° C. until further use. The cells were plated at a density of 100,000 cells cm^−2 onto plastic Petri dishes (Falcon) and were nourished with NaHCO3/HEPES-buffered minimum essential medium (MEM) supplemented with 15% foetal calf serum (Gibco) and incubated at 37° C. with 5% CO2 at 95% humidity. The medium was exchanged completely daily. Once every three days, cells were re-seeded onto fresh Petri dishes following treatment with trypsin-EDTA (1% in PBS), resuspension in MEM, and centrifugation at 1000 for 4 mins.
Patch clamp recordings were made from lifted cells, 2-3 days following seeding with polished glass electrodes (2-3 MΩ) in the whole cell mode at room temperature (20-22° C.) with an EPC-7 amplifier (List). Test substances were applied as for hippocampal cells. The contents of the intracellular solution were as follows (mM): CsCl (130), HEPES (10), EGTA (10), MgCl2 (2), CaCl2 (2), K-ATP (2), Tris-GTP (0.2), D-Glucose (10); pH was adjusted to 7.3 with CsOH or HCl. The extracellular solutions had the following basic composition (mM): NaCl (124), KCl (2.8), HEPES (10), pH 7.3 with NaOH or HCl.
Only results from stable cells were accepted for inclusion in the final analysis, i.e., showing at least 75% recovery of responses to agonist (serotonin or Ach) following removal of the antagonist tested. Despite this, recovery from drug actions wasn't always 100% because of rundown in some cells (<=10% over 10 mins). When present, this was always compensated by basing the % antagonism at each concentration on both control and recovery and assuming a linear time course for this rundown. All antagonists were assessed at steady-state blockade with 3 to 6 concentrations on at least 5 cells. Equilibrium blockade was achieved within 2 to 5 agonist applications, depending on antagonist concentration.
FIG. 1A and FIG. 1B show concentration-dependence of the blockade of 5HT3 receptors by MRZ 2/633 in cultured N1E-115 cells. Serotonin (10 μM) was applied for 2 seconds every 30 seconds in the continuous presence of various concentrations of MRZ 2/633 (1-10 μM).
B: Peak and steady-state (plateau) serotonin current responses were normalized to control levels and plotted as means (±SEM) against MRZ 2/633 concentration (n=8). Estimation of IC50s and curve fitting were made according to the 4 parameter logistic equation (GraFit, Erithacus Software).
On the technique in general: Patch clamp records ionic current or voltage across a cell membrane.

In experiment [2] the target is T3, NMDA receptors.
T3 construct: other: rat cortical membranes
Particulars: rat cortical membranes, cited from earlier work.

Experiment [3] concerns the target T4, α7 neuronal nicotinic receptors (Rattus norvegicus, UniProt Q05941).
T4 construct: against peak responses of cultured hippocampal neurones to Ach (1 mM) applied for 2 secs; endogenous in cells; host or cells: cultured rat embryonic hippocampal neurones
Kind of experiment: patch clamp, antagonism of Ach-induced inward currents in cultured hippocampal neurones. It is filed as cell-based.

[4] abbreviates: Table 2, read-out: PC NMDA (antagonism of NMDA-induced inward currents).
Setting [5] is: Table 3, read-out: PC (PC NMDA, antagonism of NMDA-induced inward currents).
Setting [6] is: read-out: [3H]MK (displacement of [3H]MK-801 binding), Table 3.
[7] abbreviates: read-out: [3H]MK- (displacement of [3H]MK-801 binding), Table 2.
Setting [8] is: cultured hippocampal neurones, Ach (1 mM) applied for 2 secs, read-out: PC Ach IC50 against peak responses.

T4 sequence (Q05941 23-502): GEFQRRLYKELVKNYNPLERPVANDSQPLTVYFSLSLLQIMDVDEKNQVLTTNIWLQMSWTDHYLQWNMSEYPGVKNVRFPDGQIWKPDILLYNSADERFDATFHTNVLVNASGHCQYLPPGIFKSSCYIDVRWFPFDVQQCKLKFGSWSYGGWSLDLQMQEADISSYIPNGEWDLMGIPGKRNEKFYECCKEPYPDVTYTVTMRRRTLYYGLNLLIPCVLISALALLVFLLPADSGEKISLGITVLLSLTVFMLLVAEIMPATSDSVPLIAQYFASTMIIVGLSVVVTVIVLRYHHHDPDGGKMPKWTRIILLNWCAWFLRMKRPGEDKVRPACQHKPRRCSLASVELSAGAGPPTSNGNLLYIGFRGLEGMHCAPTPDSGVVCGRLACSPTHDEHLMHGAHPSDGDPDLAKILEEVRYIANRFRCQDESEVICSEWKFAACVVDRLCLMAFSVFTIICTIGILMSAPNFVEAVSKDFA

As to `CCC1(C)CC(C)(C)CC(C)(N)C1` (mixture of isomers) [MRZ 2/615, 1-Amino-1,3,5,5-tetramethyl-3-ethylcyclohexane (mixture of diastereomers)], the IC50 at NMDA receptors [1] (setting [4]) was 1.3 µM; at NMDA receptors [1] (setting [5]) it was 2.9 µM; on 5-HT3 receptors it was 2.5 µM; in experiment [3] (setting [8]), 2.21 µM. The Ki at NMDA receptors [2] (setting [6]) and on NMDA receptors [2] (setting [7]) was 2.29 µM in each case.

Turning to `CC1CC(C)CC(C)(N)C1` (mixture of isomers) [MRZ 2/616, 1-Amino-1,3,5-trimethylcyclohexane (mixture of diastereomers)], the IC50 at NMDA receptors [1] (setting [4]) is 33.2 µM; at NMDA receptors [1] (setting [5]), 33.2 µM; at 5-HT3 receptors it was 38.7 µM; in experiment [3] (setting [8]), 3.4 µM. Moreover, the figures for the Ki at NMDA receptors [2] (setting [6]) and at NMDA receptors [2] (setting [7]) were 9.94 µM and 10.4 µM, respectively. Besides, the “α7 neuronal nicotinic antagonism (in words)” value in experiment [3] (hippocampal neurones) was “much more potent in this regard than previously reported for NMDA receptors”.

Consider `CCCC1(C)CCCC(C)(N)C1` (mixture of isomers) [MRZ 2/617, 1-Amino-1,3-dimethyl-3-propylcyclohexane (mixture of diastereomers)], for which the IC50 at NMDA receptors [1] (setting [5]) was 63.9 µM; in experiment [3] (setting [8]), 1.16 µM. In addition, the Ki on NMDA receptors [2] (setting [6]) is 36.1 µM.

Take `C[C@@H]1CC(C)(C)C[C@@](C)(N)C1` (relative stereo) [MRZ 2/607, 1-Amino-1,3,3,5(trans)-tetramethylcyclohexane (axial amino group)]: the figures for the IC50 on NMDA receptors [1] (setting [4]) and on 5-HT3 receptors were 13.8 µM and 22.3 µM, respectively. The Ki on NMDA receptors [2] (setting [7]) was 7.7 µM.

With `C[C@H]1CCC[C@](C)(N)C1` (relative stereo) [MRZ 2/625, 1-Amino-1,3(trans)-dimethylcyclohexane], the IC50 on NMDA receptors [1] (setting [5]) is 245 µM; in experiment [3] (setting [8]), 3.29 µM. Besides, the Ki at NMDA receptors [2] (setting [6]) is 49 µM.

Take `CCC[C@H]1CCC[C@](C)(N)C1` (relative stereo) [MRZ 2/627, 1-Amino-1-methyl-3(trans)propylcyclohexane]: the IC50 was 150 µM on NMDA receptors [1] (setting [5]) and 2.6 µM in experiment [3] (setting [8]). Besides, the Ki on NMDA receptors [2] (setting [6]) was 67.3 µM.

Consider `CC[C@H]1CCC[C@](C)(N)C1` (relative stereo) [MRZ 2/629, 1-Amino-1-methyl-3(trans)ethylcyclohexane], for which the IC50 at NMDA receptors [1] (setting [5]) was 219 µM; in experiment [3] (setting [8]), 2.05 µM. For the same compound, the Ki at NMDA receptors [2] (setting [6]) was 46.7 µM.

For `CC[C@@H]1CC(C)(C)C[C@](C)(N)C1` (relative stereo) [MRZ 2/632, 1-Amino-1,3,3-trimethyl-5(cis)ethylcyclohexane], the IC50 on NMDA receptors [1] (setting [4]) is 6.4 µM; at 5-HT3 receptors, 2.4 µM. Also, the Ki on NMDA receptors [2] (setting [7]) is 2.8 µM.

Turning to `CC[C@@H]1CC(C)(C)C[C@@](C)(N)C1` (relative stereo) [MRZ 2/633, 1-Amino-1,3,3-trimethyl-5(trans)ethylcyclohexane], the IC50 at NMDA receptors [1] (setting [4]) is 13.9 µM; on 5-HT3 receptors, 7.7 µM. The Ki at NMDA receptors [2] (setting [7]) is 4.7 µM.

With `CC1(C)CC(C)(C)CC(C)(N)C1` [MRZ 2/579, 1-Amino-1,3,3,5,5-pentamethylcyclohexane], the IC50 on NMDA receptors [1] (setting [4]) is 1.3 µM; at NMDA receptors [1] (setting [5]), 1.3 µM; at 5-HT3 receptors, 1.7 µM; in experiment [3] (setting [8]) it was 30 µM. Moreover, the Ki on NMDA receptors [2] (setting [6]) was 1.44 µM; on NMDA receptors [2] (setting [7]), 1.4 µM.

Take `CCCC1(N)CC(C)(C)CC(C)(C)C1` [MRZ 2/601, 1-Amino-1-propyl-3,3,5,5-tetramethylcyclohexane]: the IC50 is 10 µM on NMDA receptors [1] (setting [4]) and 1.3 µM at 5-HT3 receptors. The Ki on NMDA receptors [2] (setting [7]) was 7.7 µM.

As for `CCCC1(C)CC(C)CC(C)(N)C1` (stereo not drawn) [MRZ 2/618, 1-Amino-1,3(trans),5(trans)-trimethyl-3(cis)-propylcyclohexane], the IC50 on NMDA receptors [1] (setting [5]) is 57.5 µM; in experiment [3] (setting [8]), 0.65 µM. In addition, the Ki at NMDA receptors [2] (setting [6]) is 22.8 µM.

As to `CCC1(C)CCCC(C)(N)C1` (centres unmarked) [MRZ 2/620, 1-Amino-1,3-dimethyl-3-ethylcyclohexane], the values for the IC50 (on NMDA receptors [1] (setting [5]); in experiment [3] (setting [8])) were 99 µM and 2.44 µM, respectively. In addition, the Ki on NMDA receptors [2] (setting [6]) was 24.2 µM.

Turning to `CC1(C)CCCC(C)(N)C1` (centres unmarked) [MRZ 2/621, 1-Amino-1,3,3-trimethylcyclohexane], the IC50 was 92.4 µM at NMDA receptors [1] (setting [4]), 92.4 µM at NMDA receptors [1] (setting [5]), 20.3 µM at 5-HT3 receptors and 0.65 µM in experiment [3]. The Ki on NMDA receptors [2] (setting [6]) and at NMDA receptors [2] (setting [7]) was 30.6 µM throughout.

Take `CNC1(C)CC(C)(C)CC(C)(C)C1` [MRZ 2/640, N-methyl-1-Amino-1,3,3,5.5-pentamethylcyclohexane]: the figures for the IC50 on NMDA receptors [1] (setting [4]) and on 5-HT3 receptors were 14.6 µM and 10.8 µM, respectively. For the same compound, the Ki on NMDA receptors [2] (setting [7]) is 4.8 µM.

As to `CC1(N)CCCCC1` [MRZ 2/641, 1-Amino-1-methylcyclohexane], the values for the IC50 (at NMDA receptors [1] (setting [5]); in experiment [3] (setting [8])) were over 100 µM and 2.4 µM, respectively. On NMDA receptors [2] (setting [6]), the Ki was 136 µM.

For `CN(C)C1(C)CC(C)(C)CC(C)(C)C1` [MRZ 2/642, N,N-dimethyl-1-amino-1,3,3,5,5-pentamethylcyclohexane], the IC50 was 42.5 µM on NMDA receptors [1] (setting [4]), 42.5 µM on NMDA receptors [1] (setting [5]), 35.5 µM at 5-HT3 receptors and 1 µM in experiment [3]. In addition, the Ki at NMDA receptors [2] (setting [6]) and at NMDA receptors [2] (setting [7]) was 10.7 µM in each case.

With `CC1(C)CC(C)(C)CC(C)(N2CCCC2)C1` [MRZ 2/705, N-(1,3,3,5,5-pentamethylcyclohexyl)pyrrolidine], the IC50 at NMDA receptors [1] (setting [5]) was 20.8 µM; in experiment [3] (setting [8]), 1.3 µM. In addition, at NMDA receptors [2] (setting [6]), the Ki was 7.09 µM. Further, in experiment [3] (Table 3 and FIG. 4), the “fold more effective as α7 neuronal nicotinic antagonist than as NMDA receptor antagonist” value is reported as 16 fold.

The record behind these values is US20070105961A1, “1-Amino-alkylcyclohexanes as 5-HT3 and neuronal nicotinic receptor antagonists” (MERZ PHARMA GMBH & CO. KGAA, priority 2000, published 2007).
